According to US10533010B2, “Substituted indole Mcl-1 inhibitors” (Vanderbilt University, priority 2014, dated 2020):

biological target: recombinant Mcl-1 (residues 172-327) (Homo sapiens (Human), UniProt Q07820); test: Fluorescence polarization anisotropy competition assay (FITC-Bak or FITC-Bim BH3 peptide) with Mcl-1; assay type: binding; details: Table 2; Ki bins given in nM; FITC-Bak or FITC-Bim peptide competition; Ki converted from IC50; read-out: Ki for Inhibition of Mcl-1
Sequence (Q07820 172-327): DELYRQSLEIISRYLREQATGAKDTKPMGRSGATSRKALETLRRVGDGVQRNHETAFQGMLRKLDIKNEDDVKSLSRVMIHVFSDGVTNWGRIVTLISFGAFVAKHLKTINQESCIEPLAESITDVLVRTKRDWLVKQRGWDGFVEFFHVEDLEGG

| SMILES | Ki [nM] |
| --- | --- |
| Cc1cc(OCCCc2c(C(=O)N[C@H]3CCCC[C@H]3C(=O)O)[nH]c3c(-c4c(C)nn(C)c4C)c(Cl)ccc23)cc(C)c1Cl [I-333, (1R,2S)-2-(6-chloro-3-(3-(4-chloro-3,5-dimethylphenoxy)propyl)-7-(1,3,5-trimethyl-1H-pyrazol-4-yl)-1H-indole-2-carboxamido)cyclohexane-1-carboxylic acid] | < 50 |
| Cc1cc(OCCCc2c(C(=O)N[C@H]3CCC[C@H]3C(=O)O)[nH]c3c(-c4c(C)nn(C)c4C)c(Cl)ccc23)cc(C)c1Cl [I-334, (1R,2S)-2-(6-chloro-3-(3-(4-chloro-3,5-dimethylphenoxy)propyl)-7-(1,3,5-trimethyl-1H-pyrazol-4-yl)-1H-indole-2-carboxamido)cyclopentane-1-carboxylic acid] | < 50 |
| Cc1cc(OCCCc2c(C(=O)N3CCN(c4ccc(C(=O)O)cc4)CC3)[nH]c3c(-c4c(C)nn(C)c4C)c(Cl)ccc23)cc(C)c1Cl [I-335, 4-(4-(6-chloro-3-(3-(4-chloro-3,5-dimethylphenoxy)propyl)-7-(1,3,5-trimethyl-1H-pyrazol-4-yl)-1H-indole-2-carbonyl)piperazin-1-yl)benzoic acid] | < 50 |
| Cc1cc(OCCCc2c(C(=O)N3CCC(C(=O)O)C3)[nH]c3c(-c4c(C)nn(C)c4C)c(Cl)ccc23)cc(C)c1Cl (stereo not drawn) [I-336, 1-(6-chloro-3-(3-(4-chloro-3,5-dimethylphenoxy)propyl)-7-(1,3,5-trimethyl-1H-pyrazol-4-yl)-1H-indole-2-carbonyl)pyrrolidine-3-carboxylic acid] | < 50 |
| Cc1cc(OCCCc2c(C(=O)N3CCC[C@H]3C(=O)O)[nH]c3c(-c4c(C)nn(C)c4C)c(Cl)ccc23)cc(C)c1Cl [I-337, (6-chloro-3-(3-(4-chloro-3,5-dimethylphenoxy)propyl)-7-(1,3,5-trimethyl-1H-pyrazol-4-yl)-1H-indole-2-carbonyl)-L-proline] | < 50 |
| Cc1cc(OCCCc2c(C(=O)N3CCN(c4ccc(C(=O)O)cc4)CC3)n(Cc3cccnc3)c3c(-c4c(C)nn(C)c4C)c(Cl)ccc23)cc(C)c1Cl [I-338, 4-(4-(6-chloro-3-(3-(4-chloro-3,5-dimethylphenoxy)propyl)-1-(pyridin-3-ylmethyl)-7-(1,3,5-trimethyl-1H-pyrazol-4-yl)-1H-indole-2-carbonyl)piperazin-1-yl)benzoic acid] | < 50 |
| Cc1cc(OCCCc2c(C(=O)N3CCN(c4ccc(C(=O)O)cc4)CC3)n(C)c3c(-c4c(C)nn(C)c4C)c(Cl)ccc23)cc(C)c1Cl [I-339, 4-(4-(6-chloro-3-(3-(4-chloro-3,5-dimethylphenoxy)propyl)-1-methyl-7-(1,3,5-trimethyl-1H-pyrazol-4-yl)-1H-indole-2-carbonyl)piperazin-1-yl)benzoic acid] | < 50 |
| Cc1cc(OCCCc2c(C(=O)N3CCN(c4ccc(C(=O)O)cc4)CC3)n(Cc3ccncc3)c3c(-c4c(C)nn(C)c4C)c(Cl)ccc23)cc(C)c1Cl [I-340, 4-(4-(6-chloro-3-(3-(4-chloro-3,5-dimethylphenoxy)propyl)-1-(pyridin-4-ylmethyl)-7-(1,3,5-trimethyl-1H-pyrazol-4-yl)-1H-indole-2-carbonyl)piperazin-1-yl)benzoic acid] | 51 to 100 |
| Cc1cc(OCCCc2c(C(=O)N3CCN(c4ccc(C(=O)O)cc4)CC3)n(Cc3ccccn3)c3c(-c4c(C)nn(C)c4C)c(Cl)ccc23)cc(C)c1Cl [I-341, 4-(4-(6-chloro-3-(3-(4-chloro-3,5-dimethylphenoxy)propyl)-1-(pyridin-2-ylmethyl)-7-(1,3,5-trimethyl-1H-pyrazol-4-yl)-1H-indole-2-carbonyl)piperazin-1-yl)benzoic acid] | < 50 |
| Cc1cc(OCCCc2c(C(=O)N3CCN(c4ccc(C(=O)O)cc4)CC3)n(Cc3ccccc3)c3c(-c4c(C)nn(C)c4C)c(Cl)ccc23)cc(C)c1Cl [I-342, 4-(4-(1-benzyl-6-chloro-3-(3-(4-chloro-3,5-dimethylphenoxy)propyl)-7-(1,3,5-trimethyl-1H-pyrazol-4-yl)-1H-indole-2-carbonyl)piperazin-1-yl)benzoic acid] | 51 to 100 |
| Cc1cc(OCCCc2c(C(=O)N3CCN(c4ccc(C(=O)O)cn4)CC3)[nH]c3c(-c4c(C)nn(C)c4C)c(Cl)ccc23)cc(C)c1Cl [I-344, 6-(4-(6-chloro-3-(3-(4-chloro-3,5-dimethylphenoxy)propyl)-7-(1,3,5-trimethyl-1H-pyrazol-4-yl)-1H-indole-2-carbonyl)piperazin-1-yl)nicotinic acid] | < 50 |
| Cc1cc(OCCCc2c3n(c4c(-c5c(C)nn(C)c5C)c(Cl)ccc24)CCCN(C2SC(=O)NC2C(=O)O)C3=O)cc(C)c1Cl (stereo not drawn) [I-346, 5-(8-chloro-11-(3-(4-chloro-3,5-dimethylphenoxy)propyl)-1-oxo-7-(1,3,5-trimethyl-1H-pyrazol-4-yl)-4,5-dihydro-1H-[1,4]diazepino[1,2-a]indol-2(3H)-yl)-2-oxothiazolidine-4-carboxylic acid] | < 50 |
| Cc1cc(OCCCc2c3n(c4c(-c5c(C)nn(C)c5C)c(Cl)ccc24)CCCN(Cc2cc(C(=O)O)c(C)o2)C3=O)cc(C)c1Cl [I-347, 5-((8-chloro-1-(3-(4-chloro-3,5-dimethylphenoxy)propyl)-1-oxo-7-(1,3,5-trimethyl-1H-pyrazol-4-yl)-4,5-dihydro-1H-[1,4]diazepino[1,2-a]indol-2(3H)-yl)methyl)-2-methylfuran-3-carboxylic acid] | < 50 |
| Cc1cc(OCCCc2c3n(c4c(-c5c(C)nn(C)c5C)c(Cl)ccc24)CCCN(c2cccc4c2ccn4CC(=O)O)C3=O)cc(C)c1Cl [I-348, 2-(4-(8-chloro-11-(3-(4-chloro-3,5-dimethylphenoxy)propyl)-1-oxo-7-(1,3,5-trimethyl-1H-pyrazol-4-yl)-4,5-dihydro-1H-[1,4]diazepino[1,2-a]indol-2(3H)-yl)-1H-indol-1-yl)acetic acid] | < 50 |
| Cc1cc(OCCCc2c3n(c4c(-c5c(C)nn(C)c5C)c(Cl)ccc24)CCCN(Cc2cc(C(=O)O)cc(Cl)n2)C3=O)cc(C)c1Cl [I-349, 2-chloro-6-((8-chloro-1-(3-(4-chloro-3,5-dimethylphenoxy)propyl)-1-oxo-7-(1,3,5-trimethyl-1H-pyrazol-4-yl)-4,5-dihydro-1H-[1,4]diazepino[1,2-a]indol-2(3H)-yl)methyl)isonicotinic acid] | < 50 |
| Cc1cc(OCCCc2c3n(c4c(-c5c(C)nn(C)c5C)c(Cl)ccc24)CCCN(c2scnc2C(=O)O)C3=O)cc(C)c1Cl [I-350, 5-(8-chloro-11-(3-(4-chloro-3,5-dimethylphenoxy)propyl)-1-oxo-7-(1,3,5-trimethyl-1H-pyrazol-4-yl)-4,5-dihydro-1H-[1,4]diazepino[1,2-a]indol-2(3H)-yl)thiazole-4-carboxylic acid] | < 50 |
| Cc1cc(OCCCc2c(C(=O)Nc3cccc(C#N)c3)[nH]c3c(-c4c(C)nn(C)c4C)c(Cl)ccc23)cc(C)c1Cl [I-352, 6-chloro-3-(3-(4-chloro-3,5-dimethylphenoxy)propyl)-N-(3-cyanophenyl)-7-(1,3,5-trimethyl-1H-pyrazol-4-yl)-1H-indole-2-carboxamide] | 51 to 100 |
| Cc1cc(OCCCc2c3n(c4c(-c5c(C)nn(C)c5C)c(Cl)ccc24)CCCN(c2cccc(C#N)c2)C3=O)cc(C)c1Cl [I-353, 3-(8-chloro-11-(3-(4-chloro-3,5-dimethylphenoxy)propyl)-1-oxo-7-(1,3,5-trimethyl-1H-pyrazol-4-yl)-4,5-dihydro-1H-[1,4]diazepino[1,2-a]indol-2(3H)-yl)benzonitrile] | 51 to 100 |
